From US8637681B2, “Pyrrolyl substituted dihydroindol-2-one derivatives, preparation methods and uses thereof” (Qilu Pharmaceutical Co., Ltd., priority 2010, dated 2014)
“And” between values parts separate entries of the source, which are not always exact repeats. Equal values may be shown once.

How the values were obtained:
[1] = Cytotoxicity test (SRB), Hela; format: cell-based; conditions: human, Hela cervical cancer cells
Experimental: Cytotoxicity of the compounds of the present invention was tested with human non-small cell lung cancer cells A549, human cervical cancer Hela cells, human skin cancer cells A431. The test was performed by referring to the method described by Rusnak et al (Rusnak D. W., et al., Cell Prolif., 2007, 40, 580-94). […] Trypsin/ethylenediamine tetraacetic acid (EDTA) were used to harvest cells in cell culture bottle. The cells were added to a 96-well cell culture plate, 4000/well (0.1 ml medium), adhering wall overnight, 0.1 ml of the diluted solution of the compounds to be tested was added, the final concentration of DMSO was 0.25%. The cell culture plate was incubated at 37° C., 5% CO2 conditions for 72 h. […] The absorption at a wavelength of 540 nm was measured. The IC50 (μM) of the compound was calculated using Logit method.

[2] = test system: arterial ring angiogenesis in rats; assay: Inhibitory actions on arterial ring angiogenesis in rats; format: cell-based; conditions: Rattus norvegicus, area covered by micrangiums vs control well, read-out: Inhibitory rate (%); for inhibition at 0.2 µg/mL: 0.2 μg/ml; for inhibition at 1 µg/mL: 1 μg/ml; for inhibition at 5 µg/mL: 5 μg/ml
Experimental: This experiment was conducted by referring to the method described by R. F. Nicosia et al (Nicosia, R. F., et al. Am J Pathol., 1997, 151, 1379-1386). Rats were executed by cervical dislocation. The thoracic aorta was carefully separated, and placed in a container with physiological saline. The excess tissues were carefully cut off. The blood vessels were cut with a pair of ophthalmic scissors to form 1 mm thick vascular ring slices. To a pre-cooled 96-well cell culture plate, one separated vascular ring was placed in the center of each well. 70 μl of pre-molten Matrigel was carefully added to cover the vascular ring, which was incubated at 37° C. for 1 h so as to solidify it. […] The sample was placed in incubator for conventional culture, and each compound was tested at least in two repeated wells, and each test was repeated twice. […] The fresh culture medium was replaced every 3 days, and the drug was changed at the same time. The survival status of vascular rings was observed under microscope, and pictures were taken at the same time. Image Pro Plus software was used to calculate the area covered by micrangiums. The average inhibition rate was calculated by using the formula: inhibition rate (%)=(area of control well−area of drug well)/area of control well×100%.

[3] = Cytotoxicity test (SRB), A431; format: cell-based; conditions: human, A431 skin cancer cells
Experimental: (§1) Cytotoxicity of the compounds of the present invention was tested with human non-small cell lung cancer cells A549, human cervical cancer Hela cells, human skin cancer cells A431. The test was performed by referring to the method described by Rusnak et al (Rusnak D. W., et al., Cell Prolif., 2007, 40, 580-94).
(§2) In Dulbecco's Modified Eagle Medium (DMEM) comprising 10% fetal bovine serum, 2 mM glutamine and non-essential amino acids, cells were cultured at 37° C. in 5% CO2 cell incubator. Trypsin/ethylenediamine tetraacetic acid (EDTA) were used to harvest cells in cell culture bottle. The cells were added to a 96-well cell culture plate, 4000/well (0.1 ml medium), adhering wall overnight, 0.1 ml of the diluted solution of the compounds to be tested was added, the final concentration of DMSO was 0.25%. The cell culture plate was incubated at 37° C., 5% CO2 conditions for 72 h. The change of cellular morphology was observed under microscope, and then 50 μl of 50% (mass/volume) trichloroacetic acid (TCA) was added to each well to fix cells. The final concentration of TCA was 10%. It stood for 5 min, than was placed in 4° C. refrigerator for 1 h, the wells of the culture plate were washed with deionized water for 5 times to remove TCA, drained, dried in air until no wet trace was observed. 100 μl of 0.4% (mass/volume) SRB was added to each well, stood at room temperature for 10 min. The liquid in each well was discarded, and then the wells were washed with 1% acetic acid for 5 times, dried in air, extracted with 150 μl of 10 mM Tris base (trihydroxymethylaminomethane, pH 10.5). The absorption at a wavelength of 540 nm was measured. The IC50 (μM) of the compound was calculated using Logit method.

[4] = Cytotoxicity test (SRB), A549; format: cell-based; conditions: human, A549 non-small cell lung cancer cells
Experimental: as §1, §2

[5] = test system: three kinds of tumor cells (A549, Hela, A431); assay: Cytotoxicity test, summary over the three tumor cell lines; format: cell-based, human; conditions: compared with positive control Sunitinib
Experimental: as §1, §2

[6] = test system: human colon cancer HT 29 transplanted tumor; assay: Nude mice transplanted tumor test; format: in vivo, female Balb/cA nude mice; design: key to d21 Vave ± SD (average tumor volume): tumor volume TV = ½×a×b² (a, b = major, minor diameter), in mm³; conditions: for Dead animal number: dead/total animals; for inhibition in vivo at 80 mg/kg: Mus musculus, HT-29, po, 504 h, (1−T/C)×100%, read-out: Tumor inhibition rate d21 (%); for inhibition in vivo at 80 mg/kg / d21 Wave ± SD (average bodyweight of nude mice) / d21 Vave ± SD (average tumor volume) / d21 RTV ± SD (relative tumor volume): d21; for d0 Wave ± SD (average bodyweight of nude mice): d0, at grouping before administration (baseline); for d21 Vave ± SD (average tumor volume): HT 29 in nude mice; for d21 RTV ± SD (relative tumor volume): RTV=Vt/V0; for Activity of inhibiting HT-29 transplanted tumor in vivo (in words): 80 mg/kg, compared with positive control Sunitinib
Experimental: The nude mice transplanted tumor test used female Balb/cA nude mice, and tumor strains were human colon cancer HT 29 strains.
Under sterile condition, eugonic tumor tissues stage were cut into pieces of about 1.5 mm^3, and inoculated at right axillary fossa of the nude mice. The transplanted tumor diameter was measured by vernier caliper, and the animals were randomly grouped after the tumors grew to about 120 mm^3. The positive control group and the compounds group in a dosage of 80 mg/kg were administered intragastrically each day for consecutive 20 days. The negative control group was given equivalent amount of injection water containing 0.1% Tween 80. Tumor diameters and the bodyweight of mice were measured 2-3 times every week. The evaluation indexes observed in the test include relative tumor proliferation rate, bodyweight and general states. The formulation for calculating tumor volume (TV) is: TV=½×a×b^2, wherein a, b represent major diameter and minor diameter of tumor; Relative tumor volume (RTV) was calculated according the results of measurement by the following formula: RTV=Vt/V0, wherein V0 is tumor volume measured when dividing groups for administration, and Vt is tumor volume measured after each administration.

[7] = 80 mg/kg intragastrically each day for 20 days
[8] = 80 mg/kg intragastrically each day for 20 days, in mm³ (unit assumed)

## Cc1[nH]c(/C=C2\C(=O)Nc3ccc(F)cc32)c(C)c1NC(=O)CN1CCOCC1 [Compound 19, N-{5-[5-fluoro-2-oxo-1,2-dihydro-indol-(3Z)-ylidenemethyl]-2,4-dimethyl-1H-pyrrol-3-yl}-2-(morpholin-4-yl)acetamide]
[1]
  IC50 at 72 h: > 30 µM
[2]
  inhibition at 0.2 µg/mL: 89%
  inhibition at 1 µg/mL: 100%
  inhibition at 5 µg/mL: 100%
[3]
  IC50 at 72 h: 7.6 µM
[4]
  IC50 at 72 h: > 30 µM
[5]
  Cytotoxicity to tumor cells (in words): certain toxicity to some cells

## Cc1[nH]c(/C=C2\C(=O)Nc3ccc(F)cc32)c(C)c1NC(=O)CCN(C)C [Compound 6, N-{5-[5-fluoro-2-oxo-1,2-dihydro-indol-(3Z)-ylidenemethyl]-2,4-dimethyl-1H-pyrrol-3-yl}-3-(N,N-dimethylamino)propionamide]
[1]
  IC50 at 72 h: 8.08 µM
[6]; [7]
  Dead animal number: 0/6
  inhibition in vivo at 80 mg/kg: 84.7%
  d21 Wave ± SD (average bodyweight of nude mice): 20.4 ± 0.49
  d21 RTV ± SD (relative tumor volume): 1.10 ± 0.38
[6]
  d0 Wave ± SD (average bodyweight of nude mice): 18.7 ± 0.38
[6]; [8]
  d21 Vave ± SD (average tumor volume): 130.7 ± 37.4
[2]
  inhibition at 0.2 µg/mL: 92%
  inhibition at 1 µg/mL: 100%
  inhibition at 5 µg/mL: 100%
[3]
  IC50 at 72 h: > 30 µM
[4]
  IC50 at 72 h: > 30 µM
[5]
  Cytotoxicity to tumor cells (in words): certain toxicity to some cells

## C=CC(=O)Nc1c(C)[nH]c(/C=C2\C(=O)Nc3ccc(F)cc32)c1C [Compound 7, N-{5-[5-fluoro-2-oxo-1,2-dihydro-indol-(3Z)-ylidenemethyl]-2,4-dimethyl-1H-pyrrol-3-yl}-acrylamide]
[1]
  IC50 at 72 h: 6.78 µM
[6]; [7]
  Dead animal number: 0/6
  inhibition in vivo at 80 mg/kg: 59.8%
  d21 Wave ± SD (average bodyweight of nude mice): 20.9 ± 0.38
  d21 Vave ± SD (average tumor volume): 359.8 ± 45.4
  d21 RTV ± SD (relative tumor volume): 2.89 ± 1.05
[6]
  d0 Wave ± SD (average bodyweight of nude mice): 19.4 ± 0.41
[2]
  inhibition at 0.2 µg/mL: 95%
  inhibition at 1 µg/mL: 100%
  inhibition at 5 µg/mL: 100%
[3]
  IC50 at 72 h: > 30 µM
[4]
  IC50 at 72 h: > 30 µM
[5]
  Cytotoxicity to tumor cells (in words): certain toxicity to some cells

## CCN1CCN(CCC(=O)Nc2c(C)[nH]c(/C=C3\C(=O)Nc4ccc(F)cc43)c2C)CC1 [Compound 10, N-{5-[5-fluoro-2-oxo-1,2-dihydro-indol-(3Z)-ylidenemethyl]-2,4-dimethyl-1H-pyrrol-3-yl}-3-(4-ethylpiperazin-1-yl)propionamide]
[1]
  IC50 at 72 h: > 30 µM
[6]; [7]
  Dead animal number: 0/6
  inhibition in vivo at 80 mg/kg: 86.4%
  d21 Wave ± SD (average bodyweight of nude mice): 18.9 ± 0.97
  d21 RTV ± SD (relative tumor volume): 0.98 ± 0.34
[6]
  Activity of inhibiting HT-29 transplanted tumor in vivo (in words): inhibitory activity comparable to the positive control Sunitinib
  d0 Wave ± SD (average bodyweight of nude mice): 18.7 ± 1.10
[6]; [8]
  d21 Vave ± SD (average tumor volume): 112.8 ± 36.4
[2]
  inhibition at 0.2 µg/mL: 98%
  inhibition at 1 µg/mL: 100%
  inhibition at 5 µg/mL: 100%
[3]
  IC50 at 72 h: > 30 µM
[4]
  IC50 at 72 h: > 30 µM

## CCN(CC)CC(=O)Nc1c(C)[nH]c(/C=C2\C(=O)Nc3cc(C(F)(F)F)ccc32)c1C [Compound 24, N-{5-[6-trifluoromethyl-2-oxo-1,2-dihydro-indol-(3Z)-ylidenemethyl]-2,4-dimethyl-1H-pyrrol-3-yl}-2-(N,N-diethylamino)acetamide]
[1]
  IC50 at 72 h: 3.56 µM
[6]; [7]
  Dead animal number: 0/6
  inhibition in vivo at 80 mg/kg: 64.9%
  d21 Wave ± SD (average bodyweight of nude mice): 17.9 ± 0.58
  d21 RTV ± SD (relative tumor volume): 2.52 ± 0.23
[6]
  d0 Wave ± SD (average bodyweight of nude mice): 18.6 ± 0.36
[6]; [8]
  d21 Vave ± SD (average tumor volume): 298.5 ± 55.8
[2]
  inhibition at 0.2 µg/mL: 98%
  inhibition at 1 µg/mL: 100%
  inhibition at 5 µg/mL: 100%
[3]
  IC50 at 72 h: 8.89 µM
[4]
  IC50 at 72 h: > 30 µM

## Cc1[nH]c(/C=C2\C(=O)Nc3ccc(F)cc32)c(C)c1NC(=O)/C=C/CN(C)C [Compound 4, N-{5-[5-fluoro-2-oxo-1,2-dihydro-indol-(3Z)-ylidenemethyl]-2,4-dimethyl-1H-pyrrol-3-yl}-4-(N,N-dimethylamino)-(2E)-crotonamide]
[1]
  IC50 at 72 h: > 30 µM
[6]; [7]
  Dead animal number: 0/6
  inhibition in vivo at 80 mg/kg: 91%
  d21 Wave ± SD (average bodyweight of nude mice): 19.6 ± 0.85
  d21 RTV ± SD (relative tumor volume): 0.65 ± 0.28
[6]
  Activity of inhibiting HT-29 transplanted tumor in vivo (in words): inhibitory activity comparable to the positive control Sunitinib
  d0 Wave ± SD (average bodyweight of nude mice): 19.6 ± 0.22
[6]; [8]
  d21 Vave ± SD (average tumor volume): 80.0 ± 33.2
[2]
  inhibition at 0.2 µg/mL: 98%
  inhibition at 1 µg/mL: 100%
  inhibition at 5 µg/mL: 100%
[3]
  IC50 at 72 h: > 30 µM
[4]
  IC50 at 72 h: > 30 µM

## CCN(CC)CCNC(=O)c1c(C)[nH]c(/C=C2\C(=O)Nc3ccc(F)cc32)c1C [Sunitinib, reference compound]
[1]
  IC50 at 72 h: 2.03 µM
[6]; [7]
  States of mice / toxicity signs (in words): yellowing skin and blood in excrement
  Dead animal number: one tumor-bearing mouse died and 1/6
  inhibition in vivo at 80 mg/kg: 88.5%
[6]
  d0 Wave ± SD (average bodyweight of nude mice): 19.4 ± 0.44
[6]; [8]
  d21 Vave ± SD (average tumor volume): 129.6 ± 45.8
[6]; mouse, in vivo
  Bodyweight of mice after administration (in words): decreased significantly
[2]
  inhibition at 0.2 µg/mL: 95%
  inhibition at 1 µg/mL: 100%
  inhibition at 5 µg/mL: 100%
[3]
  IC50 at 72 h: 1.93 µM
[4]
  IC50 at 72 h: 11.5 µM

## Cc1[nH]c(/C=C2\C(=O)Nc3ccc(F)cc32)c(C)c1NC(=O)CN1CCCC1 [Compound 17, N-{5-[5-fluoro-2-oxo-1,2-dihydro-indol-(3Z)-ylidenemethyl]-2,4-dimethyl-1H-pyrrol-3-yl}-2-(tetrahydropyrrol-1-yl)acetamide]
[1]
  IC50 at 72 h: > 30 µM
[6]; [7]
  Dead animal number: 0/6
  inhibition in vivo at 80 mg/kg: 63.5%
  d21 Wave ± SD (average bodyweight of nude mice): 19.2 ± 0.82
  d21 Vave ± SD (average tumor volume): 324.5 ± 39.4
  d21 RTV ± SD (relative tumor volume): 2.63 ± 0.53
[6]
  d0 Wave ± SD (average bodyweight of nude mice): 18.9 ± 0.58
[2]
  inhibition at 0.2 µg/mL: 89%
  inhibition at 1 µg/mL: 100%
  inhibition at 5 µg/mL: 100%
[3]
  IC50 at 72 h: > 30 µM
[4]
  IC50 at 72 h: > 30 µM
